From BindingDB's records for doi:10.1016/j.bmcl.2021.128001 (The First Affiliated Hospital of Anhui Medical University, 2021)

Target: T1, Peptidase (Staphylococcus aureus, UniProt Q7DHH4)
T1 sequence (Q7DHH4 whole entry): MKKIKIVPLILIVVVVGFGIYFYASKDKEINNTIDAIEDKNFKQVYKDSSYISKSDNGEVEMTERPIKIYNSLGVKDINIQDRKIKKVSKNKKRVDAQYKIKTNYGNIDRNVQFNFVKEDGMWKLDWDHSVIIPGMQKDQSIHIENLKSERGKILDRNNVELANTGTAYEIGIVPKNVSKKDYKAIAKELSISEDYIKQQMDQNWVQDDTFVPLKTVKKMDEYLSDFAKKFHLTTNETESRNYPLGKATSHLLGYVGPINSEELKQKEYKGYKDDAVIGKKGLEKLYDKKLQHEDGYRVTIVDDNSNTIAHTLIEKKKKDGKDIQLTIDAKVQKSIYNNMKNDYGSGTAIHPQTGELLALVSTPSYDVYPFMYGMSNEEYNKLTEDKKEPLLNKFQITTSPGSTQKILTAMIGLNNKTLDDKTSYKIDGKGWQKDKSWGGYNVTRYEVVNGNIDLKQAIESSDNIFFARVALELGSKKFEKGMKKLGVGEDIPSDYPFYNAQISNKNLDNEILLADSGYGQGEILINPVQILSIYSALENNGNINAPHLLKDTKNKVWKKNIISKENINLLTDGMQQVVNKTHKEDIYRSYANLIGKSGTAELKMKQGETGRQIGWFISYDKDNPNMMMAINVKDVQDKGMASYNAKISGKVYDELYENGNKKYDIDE
Experiment: Binding affinity to Staphylococcus aureus PBP2a assessed as dissociation constant by SPR assay

Row | Compound | koff [s⁻¹]
1 | Cc1ccc(NC(=O)[C@H](Cc2c[nH]c3ccccc23)NC(=O)C2CCN(C(=O)CNC(=O)OC(C)(C)C)CC2)cc1 | 0.0253
2 | COc1ccc(-c2cc(=O)oc3c(C)c(OCC(=O)N[C@@H](Cc4c[nH]c5ccc(O)cc45)C(=O)O)ccc23)cc1 | 0.0214
3 | COc1cc2c(c(OC)c1OC)-c1ccc(NCC(=O)NCCc3c[nH]c4ccccc34)c(=O)cc1[C@@H](NC(C)=O)CC2 | 0.0207
4 | COc1ccc(NC(=O)[C@H]2Oc3c(c(=O)oc4ccccc34)[C@@H]2c2ccc(CCCN3CCCC3=O)cc2)cc1 | 0.0284
